In patent US11045471B2, “Melanin production inhibitor, whitening agent, fibroblast activator, collagen and/or elastin production promotor and wrinkle ameliorant” (SHOWA DENKO K.K., priority 2016, dated 2021):
Converted amounts (≈) assume the structure as drawn. One block for each molecule: values may come before it.

Assays:
[1] = tested on: human three-dimensional skin equivalent; assay: Cell survival rate in human three-dimensional skin equivalent (Cell Count Reagent SF); assay type: cell-based; conditions: for Cell Survival Rate (Relative Value): 15 days culture, control (PBS) = 1
Procedure: (§1) The effect of inhibiting melanin production in human three-dimensional skin was examined. Human three-dimensional skin equivalent manufactured by MatTek Corp. was purchased and pre-cultured for 1 hour with the dedicated culture medium, EPI-100LLMM, available from the same manufacturer.
(§2) Following pre-culturing, orotic acid-glutamic acid dissolved in phosphate-buffered saline (PBS) was added to the skin surface at a final concentration of 0.2% (w/v), 0.5% (w/v) or 1.0% (w/v), or orotic acid was added to the skin surface at a final concentration of 0.5% (w/v), followed by culturing for 15 days. The cell survival rates of the human three-dimensional skin equivalent following addition of orotic acid or orotic acid-glutamic acid were measured using the Cell Count Reagent SF manufactured by Nacalai-Tesque, Inc. After culturing, the skin was transferred to medium containing 1% Cell Count Reagent SF and after culturing for 3 hours, absorbance was measured at […]. Cell survival rates were calculated as the measured value based on a value of 1 for the control.

[2] = tested on: human three-dimensional skin equivalent; assay: Melanin production inhibition in human three-dimensional skin equivalent; assay type: cell-based; conditions: for Melanin Production Rate (relative value): 15 days culture, per cell, control (PBS) = 1
Procedure: as §1, §2
After measuring cell survival rates in Experimental Example 2, the skin was thoroughly rinsed with PBS followed by sampling the skin and recovering in a 1.5 mL microtube. 150 μL of a dissolving solution containing sodium dodecyl sulfate (1% (w/v)), 0.05 mM ethylenediaminetetraacetate and 10 mM Tris-HCl (pH 6.8) were added thereto. After stirring, 3 μL of 5 mg/mL protease K were added followed by dissolving for 6 hours at 45° C., adding 25 μL of 500 mM […] and 5 μL of 30% aqueous hydrogen peroxide and further treating for 30 minutes at 80° C. After allowing the sample to cool to room temperature, 20 μL of a 2:1 solution of chloroform and methanol were added to the sample followed by centrifuging for 10 minutes at the highest rotating speed of the centrifuge. 80 μL aliquots of the sample supernatant were recovered onto microplates followed by measurement of absorbance at 405 nm. Melanin production rate was determined by calculating the extinction coefficient of each sample based on a value of 1 for the control and dividing that value by the cell survival rate determined in Example 2 to calculate the melanin production rate per cell.

[3] = tested on: aged fibroblasts (NB1RGB cells); assay: Collagen production in aged human fibroblasts (human collagen type I ELISA); assay type: cell-based; conditions: 100 μM, 24 hours, culture supernatant; control = 1.00
Procedure: Aged fibroblasts were prepared. Normal human fibroblasts in the form of NB1RGB cells (purchased from the Bioresource Center of Riken Japan) were cultured to confluence in a culture flask, and after culturing for 1 hour in Dulbecco's Modified Eagle Medium (DMEM) manufactured by Sigma Corp. containing 600 μM aqueous hydrogen peroxide and 10% (w/v) fetal calf serum, the cells were washed with PBS and cultured for 24 hours after changing the medium to DMEM containing 10% (w/v) fetal calf serum. This procedure was repeated three times to obtain aged fibroblasts.
The resulting aged fibroblasts were seeded into a plastic Petri dish at a seeding density of about 10,000 cells/cm^2 and then cultured for 24 hours in Dulbecco's Modified Eagle Medium (DMEM) manufactured by Sigma Corp. containing 10% (w/v) fetal calf serum. Subsequently, orotic acid or an orotic acid derivative dissolved in purified water (Table 4) was added to the medium at a final concentration of 100 μmol/L followed by additionally culturing for 24 hours. The medium to which orotic acid or orotic acid derivative had not been added was used as a control.
The culture supernatant was recovered after culturing and collagen production was measured using a human collagen type I ELISA kit manufactured by Acel, Inc. 50 μL of culture supernatant of each sample were added to a microplate treated with collagen antibody provided with the kit. After shake culturing for 1 hour at room temperature, the plate was washed three times with the washing solution provided with the kit. 50 μL of horseradish peroxidase-avidin reagent provided with the kit were added thereto followed by shake culturing for 1 hour at room temperature. After again washing three times with the washing solution, 50 μL of the coloring solution provided with the kit were added followed by allowing to stand undisturbed for 15 minutes at room temperature and adding 50 μL aliquots of reaction stopping solution thereto. After mixing by shaking for 1 minute, absorbance was measured at 450 nm.

[4] = tested on: Normal human fibroblasts (NB1RGB cells); assay: Elastin production in normal human fibroblasts (elastin assay kit); assay type: cell-based; conditions: 48 hours, control = 1.00
Procedure: Normal human fibroblasts in the form of NB1RGB cells (purchased from the Bioresource Center of Riken Japan) were seeded at a seeding density of about 10,000 cells/cm^2 and cultured for 24 hours in DMEM medium containing 10% (w/v) fetal calf serum. An orotic acid derivative according to the present invention dissolved in pure water to a final concentration of 0 μM (control), 0.1 μM, 1 μM, 10 μM or 100 μM or orotic acid dissolved in purified water to a final concentration of 100 μM was added to DMEM medium containing 10% (w/v) fetal calf serum followed by culturing for 48 hours. The cells were subsequently recovered, the elastin was extracted with an elastin assay kit manufactured by Biocolor Ltd., and absorbance of the extract was measured at a wavelength of 513 nm.

[5] = cited from earlier work
[6] = Effect of pH on water solubility (saturated concentration by HPLC)
Procedure: (§3) Subsequently, the pH of the remaining sample solution was adjusted using 1.0 N or 0.05 N aqueous sodium hydroxide solution, and in the case all of the sample had dissolved in the solution, sample was further added followed by stirring for 15 hours at room temperature (22° C.±2° C.) so that some of the sample was left undissolved and 1 mL of supernatant was similarly collected. Supernatant was repeatedly collected while adjusting the pH as necessary to obtain samples.
(§4) The resulting samples were filtered with a membrane filter having a pore size of 22 μm followed by subjecting the resulting filtrate to high-performance liquid chromatography (HPLC).
(§5) HPLC analyses were carried out using the LC Solution and PDA detector (CBM-20A) manufactured by Shimadzu Corp. and the Shodex RSpak DM-614 column at a column temperature of 40° C. and flow rate of 0.8 ml/min while using 0.02% H3PO4 for the mobile phase.
(§6) The concentration of each sample dissolved in solution was calculated from the area of the peak that coincided with each sample in the resulting analysis data.

physchem = conditions: 22 °C, thermodynamic from solid
Procedure: as §3, §4, §5, §6

[7] = 22 °C, pH 2.3, water, thermodynamic from solid
[8] = 22 °C, pH 4, aqueous buffer, thermodynamic from solid

Saturated concentration ([6]; pH 2.3, room temperature (22° C.±2° C.)): 0.08 % (w/v) | Saturated concentration ([6]; pH 4.6, room temperature (22° C.±2° C.)): 0.27 % (w/v) | Saturated concentration ([6]; pH 4.8, room temperature (22° C.±2° C.)): 0.26 % (w/v) | Saturated concentration ([6]; pH 5.8, room temperature (22° C.±2° C.)): 0.19 % (w/v) | Saturated concentration ([6]; pH 7.1, room temperature (22° C.±2° C.)): 0.16 % (w/v)
Compound: O=C(O)c1cc(=O)[nH]c(=O)[nH]1 [Orotic acid, reference compound]
Cell Survival Rate (Relative Value) ([1]; 0.5% (w/v) on skin surface): 1.1 | Melanin Production Rate (relative value) ([2]; 0.5% (w/v)): 0.70 | Effect of inhibiting melanin production, statement in words ([2]; human three-dimensional skin equivalent): superior effect of inhibiting melanin production | Collagen Production (relative value) [3]: 1.14 | Elastin Production (relative value) ([4]; 100 μM): 1.12 | Solubility in alcohol ([5]; alcohol such as ethanol): practically insoluble | Solubility in water ([5]; water): extremely insoluble

solubility thermodynamic at 15 h ([6]; 22 °C, pH 2.8, aqueous buffer, thermodynamic from solid): 1.1 mg/mL (≈ 5.16 mM) | solubility thermodynamic at 15 h ([6]; 22 °C, pH 3.6, aqueous buffer, thermodynamic from solid): 3.2 mg/mL (≈ 15 mM) | solubility thermodynamic at 15 h [6, 8]: 5.5 mg/mL (≈ 25.8 mM) | solubility thermodynamic at 15 h ([6]; 22 °C, pH 4.5, aqueous buffer, thermodynamic from solid): 16.6 mg/mL (≈ 77.9 mM) | solubility thermodynamic at 15 h ([6]; 22 °C, pH 5.1, aqueous buffer, thermodynamic from solid): 38.3 mg/mL (≈ 180 mM) | solubility thermodynamic at 15 h ([6]; 22 °C, pH 6.1, aqueous buffer, thermodynamic from solid): 66 mg/mL (≈ 310 mM)
Compound: O=C(O)CNC(=O)c1cc(=O)[nH]c(=O)[nH]1 [Orotic acid-Gly]
Collagen Production (relative value) [3]: 1.23

The remaining lines, values behind:

Compound: O=C(O)C[C@H](NC(=O)c1cc(=O)[nH]c(=O)[nH]1)C(=O)O [Orotic acid-Asp]
solubility thermodynamic at 15 h [6, 7]: 9.5 mg/mL (≈ 35 mM) | solubility thermodynamic at 15 h [6, 8]: 98.2 mg/mL (≈ 362 mM) | solubility at 15 h ([6]; 22 °C, pH 4.2, aqueous buffer, thermodynamic from solid): > 111 mg/mL

Compound: O=C(O)CC[C@H](NC(=O)c1cc(=O)[nH]c(=O)[nH]1)C(=O)O [Orotic acid-Glu]
Cell Survival Rate (Relative Value) ([1]; 0.2% (w/v) on skin surface): 1.4 | Cell Survival Rate (Relative Value) ([1]; 0.5% (w/v) on skin surface): 1.2 | Cell Survival Rate (Relative Value) ([1]; 1% (w/v) on skin surface): 0.9 | Cell survival rate, statement in words ([1]; at the test concentrations 0.2%, 0.5%, 1.0% (w/v)): no decreases in cell survival rates observed | Melanin Production Rate (relative value) ([2]; 0.2% (w/v)): 0.61 | Melanin Production Rate (relative value) ([2]; 0.5% (w/v)): 0.71 | Melanin Production Rate (relative value) ([2]; 1% (w/v)): 0.50 | Collagen Production (relative value) [3]: 1.53 | Elastin Production (relative value) ([4]; 0.1 μM): 1.20 | Elastin Production (relative value) ([4]; 1 μM): 1.35 | Elastin Production (relative value) ([4]; 10 μM): 1.24 | Elastin Production (relative value) ([4]; 100 μM): 1.24 | solubility thermodynamic at 15 h [6, 7]: 13 mg/mL (≈ 45.6 mM) | solubility thermodynamic at 15 h ([6]; 22 °C, pH 5.2, aqueous buffer, thermodynamic from solid): 54.3 mg/mL (≈ 190 mM)

Compound: O=C(N[C@@H](Cc1c[nH]cn1)C(=O)O)c1cc(=O)[nH]c(=O)[nH]1 [Orotic acid-His]
Collagen Production (relative value) [3]: 1.23 | solubility thermodynamic at 15 h (physchem; pH 4.9, aqueous buffer): 2.2 mg/mL (≈ 7.5 mM) | solubility thermodynamic at 15 h (physchem; pH 7.2, aqueous buffer): 12.5 mg/mL (≈ 42.6 mM)
